The results in this text go back to PubChem BioAssay AID1963836 (Molecular Pharmacology Branch, DTP, NCI, 2024).

Broadly, the viability, T/C is the ratio of treated to control. A word on the IC50: it is the midpoint of a concentration-inhibition curve.

Values joined by “and” are separate entries in the source; they are usually repeats but may differ in a detail not shown here. Identical values can stand only once.

This experiment has as its system 857933-349-R-J2-PDC complex spheroid viability. Put plainly: Anticancer human tumor 857933-349-R-J2-PDC patient-derived colon adenocarcinoma cell line growth inhibition [POLQ]. Conditions: for viability, T/C: stronger effect = lower value; for IC50: curve of compound. On the procedure: Multicellular complex tumor spheroid response to Polymerase (POL) inhibitors (novobiocin, ART-558, RP6685) in combination with a variety of drugs and investigational agents in selected tumor cell lines
The POL inhibitors (novobiocin, ART-558, and RP6685) were evaluated both individually and in combination with standard of care and investigational anticancer small molecules within a complex spheroid model of solid tumors. . Complex spheroids include a stromal component modeled by human endothelial cells (HUVEC) and fibroblasts modeled by human mesenchymal stem cells (MSCs). The concentration ranges selected for each drug and investigational agent were based upon clinically achievable concentrations if the clinical Cmax of the agent was known.
Compounds. The drugs and investigational agents: novobiocin (NSC847541), ART-558 (NSC835418), RP-6685 (NSC848927), peposertib (NSC802822), ceralasertib (NSC780249), elimusertib (NSC800525), camonsertib (NSC841442), AZD-1390 (NSC803789), olaparib (NSC753686), talazoparib (NSC767125), rucaparib (NSC756644), sotorasib (NSC818433), MRTX-1133 (NSC836407), SN-38 (NSC673596), topotecan (NSC609699), epotoside (NSC141540), doxorubicin (NSC123127), gemcitabine (NSC613327), 5-fluorouracil (NSC19893), paclitaxel (NSC125973), vemurafenib (NSC761431), MSA-2 (NSC828583), SN-011 (NSC837082), adavosertib (NSC754352), prexasertib (NSC758257), carboplatin (NSC241240) and oxaliplatin (NSC266046), were obtained from the National Cancer Institute (NCI) Developmental Therapeutics Program Chemical Repository (21). The FDA-approved anticancer drug set is available from the Developmental Therapeutics Program at https://dtp.cancer.gov/organization/dscb/obtaining/. […] The stock solutions were prepared in dimethyl sulfoxide (DMSO, Sigma-Aldrich, St. Louis, MO, cat. D2650), except for the platinum compounds which were prepared in saline (Quality Biological, Gaithersburg, MD, cat. 114-055-101), at 800-fold the tested concentration and stored at -70 degrees C prior to their use. All drugs and investigational agents were tested over a range starting from a high concentration at or near the clinical Cmax and decreasing in half-log increments. If the clinical Cmax for an agent had not been determined, the highest concentration tested was 10 microM, except for SN-38, which was tested at a high concentration of 1 microM.
Cell Culture. All cells were maintained in an incubator at 37 degrees C and 5% CO2 with 95% humidity. The PDC lines were cultured according to standard operating procedures established by the NCI PDMR (https://pdmr.cancer.gov). Table 3 of the manuscript, lists the cell lines along with the number of the three cell types plated to form the mct-spheroids and media for tumor cell growth. After thawing, all PDC lines, except 997537-175-T-J1-PDC and 415267-285-R-J2-PDC, were cultured in Matrigel-coated flasks prepared with a working solution of 1X Ham's F-12 nutrient mix, without supplementation (Thermo Fisher Scientific, cat. 11765054), 100 U/mL penicillin-streptomycin (Thermo Fisher Scientific, cat. 15140122), and 2.5% Matrigel (Corning Inc., Corning, NY, cat. 354248) for the first three passages. The two PDC lines 997537-175-T-J1-PDC and 415267-285-R-J2-PDC were cultured on uncoated flasks. The 857933-349-R-J2-PDC line was cultured in 6C/Colon 1B media containing advanced DMEM/F-12 (Thermo Fisher Scientific, cat. 12634028), 10 mM HEPES (Thermo Fisher Scientific, cat. 15630080), 1X GlutaMAX supplement (Thermo Fisher Scientific, cat. 35050061), 0.1 mg/mL primocin (InvivoGen, San Diego, CA, cat. ant-pm-2), 10% defined fetal bovine serum, heat inactivated (HyClone Laboratories Inc., Logan, UT, cat. SH30070.03HI), 50% L-WRN conditioned media (ATCC, cat. CRL-3276), 1.25 mM N-Acetyl-L-cysteine (Sigma-Aldrich, cat. A9165), 10 mM nicotinamide (Sigma-Aldrich, cat. N0636), 1X B-27 supplement (Thermo Fisher Scientific, cat. 17504044), 1X N-2 supplement (Thermo Fisher Scientific, cat. […]
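Note: spheroids exposed to compounds for seven days before readout.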

Regarding `C=CC(=O)N1CCN(c2nc(=O)n(-c3c(C)ccnc3C(C)C)c3nc(-c4c(O)cccc4F)c(F)cc23)C(C)C1` (stereo not given), the concentration for half-maximal inhibition (IC50) was > 10000 nM. Further, the viability, T/C (compound 0.0316 µM) was 82% and 96.3% and 96.5%. Moreover, where the note is “compound 0.1 µM”, the viability, T/C is 103% and 96.2% and 101%. Also, the viability, T/C (compound 0.316 µM) was 97.5% and 113% and 80.8%. In addition, where the note is “compound 1 µM”, the viability, T/C was 101% and 99.1% and 91.3%. Moreover, the viability, T/C (compound 3.16 µM) is 94.3% and 103% and 92.1%. For the same compound, the viability, T/C (compound 10 µM) is 117% and 103% and 94.6%.
For the compound `C=CCn1c(=O)c2cnc(Nc3ccc(N4CCN(C)CC4)cc3)nc2n1-c1cccc(C(C)(C)O)n1`, the IC50 is > 1000 nM. Moreover, under “compound 0.00316 µM”, the viability, T/C is 99.5% and 94.6% and 95.5%. Also, where the note is “compound 0.01 µM”, the viability, T/C is 72.9% and 104% and 93.5%. The viability, T/C (compound 0.0316 µM) was 84.6% and 98.7% and 93.5%. In addition, where the note is “compound 0.1 µM”, the viability, T/C was 94.9% and 107% and 102%. The viability, T/C (compound 0.316 µM) is 109% and 102% (2×). Further, for the setting “compound 1 µM”, the viability, T/C was 66.4% and 73.5% and 82.9%.
`CC(=O)O[C@H]1C(=O)[C@@]2(C)[C@H]([C@H](OC(=O)c3ccccc3)[C@]3(O)C[C@H](OC(=O)[C@H](O)[C@@H](NC(=O)c4ccccc4)c4ccccc4)C(C)=C1C3(C)C)[C@]1(OC(C)=O)CO[C@@H]1C[C@@H]2O`: the 50% inhibitory concentration (IC50) was < 9.49 nM and 9.59 nM and 15 nM. Moreover, the viability, T/C (compound 0.00949 µM) was 40.3% and 50.5% and 65.1%. Moreover, the viability, T/C (compound 0.03 µM) is 15.2% and 21.8% and 27.1%. Moreover, for the setting “compound 0.0949 µM”, the viability, T/C was 9.46% and 11.5% and 16.2%. Moreover, the viability, T/C (compound 0.3 µM) is 12.5% and 11.3% and 21.3%. Moreover, the viability, T/C (compound 0.949 µM) was 11.2% and 14.4% and 17%. Further, where the note is “compound 3 µM”, the viability, T/C is 12.1% and 16.1% and 21.9%.
Turning to `CC(C)n1c(=O)n(C)c2cnc3cc(F)c(-c4ccc(OCCCN5CCCCC5)nc4)cc3c21`, the concentration for half-maximal inhibition (IC50) is > 10000 nM. The viability, T/C (compound 0.0316 µM) was 85.8% and 92.4% and 99%. Besides, the viability, T/C (compound 0.1 µM) is 84.1% and 96.4% and 101%. In addition, the viability, T/C (compound 0.316 µM) was 92.8% and 101% and 115%. In addition, the viability, T/C (compound 1 µM) is 91.6% and 100% and 106%. Further, under “compound 3.16 µM”, the viability, T/C is 94.7% and 113% and 97.5%. In addition, the viability, T/C (compound 10 µM) was 63.6% and 98.3% and 110%.
`CC1COCCN1c1cc(-c2ccnn2C)c2ccnc(-c3ccn[nH]3)c2n1` (stereo not given): the IC50 is 190 nM and 202 nM and 558 nM. Besides, the viability, T/C (compound 0.0316 µM) was 70% and 80.3% and 83.9%. Also, under “compound 0.1 µM”, the viability, T/C was 59.9% and 64.2% and 58.6%. In addition, the viability, T/C (compound 0.316 µM) was 40.7% and 40% and 54.9%. Further, the viability, T/C (compound 1 µM) is 41.7% and 35.7% and 48.2%. In addition, the viability, T/C (compound 3.16 µM) was 41.2% and 43.7% and 44.5%. The viability, T/C (compound 10 µM) is 44.9% and 44.1% and 48%.
For the compound `CC1COCCN1c1cc(C2(S(C)(=N)=O)CC2)nc(-c2ccnc3[nH]ccc23)n1` (stereo not given), the IC50 was 4650 nM and > 10000 nM and 6260 nM. For the setting “compound 0.0316 µM”, the viability, T/C is 87.6% and 102% and 103%. Further, where the note is “compound 0.1 µM”, the viability, T/C is 88.4% and 105% and 117%. The viability, T/C (compound 0.316 µM) was 101% (2×) and 81.7%. Besides, the viability, T/C (compound 1 µM) is 77.9% and 69% and 76.1%. Moreover, the viability, T/C (compound 3.16 µM) is 59.6% and 68.9% and 62.7%. Further, the viability, T/C (compound 10 µM) is 33.2% and 55.2% and 42.2%.
On to `CCCS(=O)(=O)Nc1ccc(F)c(C(=O)c2c[nH]c3ncc(-c4ccc(Cl)cc4)cc23)c1F`, for which the IC50 is 6990 nM and 5900 nM and 5640 nM. Further, under “compound 0.0316 µM”, the viability, T/C is 87.2% and 97.5% and 76%. Moreover, where the note is “compound 0.1 µM”, the viability, T/C was 91% and 92.8% and 98.1%. For the same compound, the viability, T/C (compound 0.316 µM) was 80.8% and 102% and 99.7%. In addition, the viability, T/C (compound 1 µM) was 82.6% and 101% and 102%. In addition, the viability, T/C (compound 3.16 µM) was 97.3% and 93.2% and 86%. Besides, where the note is “compound 10 µM”, the viability, T/C is 32.9% and 13.3% and 13.9%.
Take `CC[C@@]1(O)C(=O)OCc2c1cc1n(c2=O)Cc2cc3c(CN(C)C)c(O)ccc3nc2-1`: the IC50 was 76.4 nM and 80.2 nM and 66.3 nM. Besides, for the setting “compound 0.000316 µM”, the viability, T/C is 98.5% and 99.4% and 113%. In addition, where the note is “compound 0.001 µM”, the viability, T/C is 115% and 95.2% and 99.9%. For the same compound, the viability, T/C (compound 0.00316 µM) was 79.1% and 91.7% and 88.3%. Further, for the setting “compound 0.01 µM”, the viability, T/C was 71.2% and 80% and 87.5%. The viability, T/C (compound 0.0316 µM) is 66.7% and 63.9% and 53.9%. In addition, the viability, T/C (compound 0.1 µM) is 44.2% and 46.5% and 45.7%.
`CCc1c2c(nc3ccc(O)cc13)-c1cc3c(c(=O)n1C2)COC(=O)[C@]3(O)CC`: the half-maximal inhibitory concentration (IC50) was 15.6 nM and 13.6 nM and 16.5 nM. For the same compound, where the note is “compound 0.00316 µM”, the viability, T/C was 76.9% and 53.6% and 65.9%. Also, the viability, T/C (compound 0.01 µM) was 60.1% and 67.4% and 65.8%. Moreover, the viability, T/C (compound 0.0316 µM) was 35.1% and 21.3% and 31.4%. Also, the viability, T/C (compound 0.1 µM) was 22.3% and 16.2% and 23.3%. Also, the viability, T/C (compound 0.316 µM) was 17.8% and 10.6% and 15.8%. The viability, T/C (compound 1 µM) was 4.53% and 2.45% and 5.61%.
For `CCc1cc2c(N3CCc4c(cc(Cn5ccnc5)cc4-c4cn(C)nc4C(F)(F)F)C3=O)ccnc2c(OC)n1`, the IC50 is > 10000 nM. Besides, the viability, T/C (compound 0.0316 µM) is 78.8% and 89.8% and 94.1%. Also, where the note is “compound 0.1 µM”, the viability, T/C is 83.8% and 87.8% and 80.9%. In addition, the viability, T/C (compound 0.316 µM) was 73.6% and 90% and 98.3%. For the same compound, the viability, T/C (compound 1 µM) was 73.4% and 84.9% and 82.2%. Besides, the viability, T/C (compound 3.16 µM) is 62.2% and 72.7% and 78%. Also, under “compound 10 µM”, the viability, T/C was 58.9% and 65.9% and 59%.
